The source of these data is patent publication US10501460B2, “Heterocyclic compounds and uses thereof” (Plexxikon Inc., priority 2013, dated 2019).

Bounds are passed on as bounds.

Broadly, the IC50 is the midpoint of a concentration-inhibition curve.

For assay [1], the system named is MV-4-11. As to the kind of experiment: Oncology cell growth assay MV-4-11 (CellTiter Glo, 72 hours). The conditions noted are these: Homo sapiens, MV4-11, 72 h; MV-4-11 cell growth inhibitory activity, 3d. It counts as cell-based. The procedure, abridged:
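MV-4-11 cells (MLL-AF4 AML) exposed 72 h to 8-point 1:3 titration, top final 10 μM, 0.2% DMSO. CellTiter Glo luminescence as cell-number readout, normalized to DMSO controls; pIC50 from four-parameter fit.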
On the technique in general: ATP-based viability assays read luminescence as a measure of living cells.

Assay [2] concerns the target T1, BRD4-BD1 (44-164) (Homo sapiens, UniProt O60885).
T1 construct: BRD4-BD1 (44-164); made in house; host or cells: E. coli BL21-CodonPlus (DE3)
The assay can be described thus: Alphascreen binding assay BRD4-BD1 (BRD4 biochemical inhibitory activity). The settings on record: read-out: Biochemical activity (IC50 μM) BRD4(1) H4. Here is the method: Binding of compounds of formula (I) with bromodomain 2, 3 4 was assessed using Alphascreen binding assay. The inhibition of the interaction between bromodomain and its acetylated target protein (Filippakopoulos P et al. 2012) was measured quantitatively using recombinant BRD proteins, an acetylated Histone 4 peptide and AlphaScreen™ technology. In absence of inhibition the BRD protein bound to AlphaScreen™ nickel chelate acceptor beads can interact with the acetylated Histone 4 peptide which is immobilized by the AlphaScreen™ Streptavidin coated beads. This interaction brings donor and acceptor beads in proximity. The close proximity allows the singlet oxygen produced by laser excitation of the donor beads to reach the acceptor beads and generate a luminescence signal. BRD inhibitors result in a decrease in the proximity signal through an inhibition of the BRD—acetylated peptide interaction.
Recombinant human bromodomains containing the N-terminal bromodomain (BRD2-BD1 (71-194), BRD3-BD1 (24-144) and BRD4-BD1 (44-164)) or dual bromodomains (BRD4-BD12 (1-477), BRD4-BD12 (1-472)) were prepared and purified as described in protein expression and purification session. The peptide is human Histone H41-21K5AcK8AcK12AcK16Ac-Biotin (Anaspec Calif., USA).
Protocol for BRD2, BRD3 and BRD4 assay: All components are prepared in buffer composed of 50 mM HEPES pH 7.5, 100 mM NaCl, 0.01% bovine serum albumin (“BSA”), 0.01% Triton X-100, 2 mM dithiothreitol (“DTT”). 7 μL of Bromodomain protein and 7 μL of peptide are added to wells containing 1 μL of various concentrations of test compounds of formula (I) or DMSO vehicle in an Alphaplate (PerkinElmer Ga., USA) and incubated for 1 hour at room temperature. 4 μL donor and acceptor bead mixture is then added with final concentrations of 7.5 μg/ml. 30 minutes after bead addition, Alpha signal is read on the Envision spectrometer ([…]Ex 680 nm, […]Em 520-620 nm). Final concentrations of bromodomain proteins and peptide are as shown below.
All data was normalized to the mean of 16 high and 16 low control wells on each plate. A four parameter curve fit of the following formula was then applied: Y=a+(b−a)/(1+(x/c)^d) Where ‘a’ is the minimum, ‘b’ is the maximum, ‘c’ is the pIC50 and ‘d’ is the Hill slope. Protein Expression and Purification
Recombinant human bromodomains containing the N-terminal bromodomain (BRD2-BD1 (71-194), BRD3-BD1 (24-144) and BRD4-BD1 (44-164)) or dual bromodomains (BRD4-BD12 (1-477), BRD4-BD12 (1-472)) were expressed in E. coli cells (in a modified pET vector) with an N-terminal six-His tag and purified using a combination of both IMAC (Ni-affinity) and size exclusion chromatography steps.
Recombinant BRD proteins were expressed using the E. coli strain BL21-CodonPlus (DE3) (Agilent Technologies Calif., USA). Cells were grown in Terrific Broth (TB) media to an OD600 of 1.2 at 37° C. at which temperature was reduced to 25° C., protein was induced with 1.0 mM ispropyl-β-D-thiogalactopyranoside (“IPTG”) for 12-18 hours and harvested by centrifugation at 8000×g for 20 minutes. Cells were re-suspended in 0.1M K2PO4 pH 8.0, 250 mM NaCl, 10% Glycerol, 0.75% NP-40, 25 mM Imidazole, 5 mM beta-mercaptoethanol (“BME”) with 0.2 mg/ml Lysosyme, 2.0 mM phenylmethanesulfonyl fluoride (“PMSF”), 25 μg/ml DNAse I, incubated on ice for 30 minutes and lyzed with a cell disruptor (MicroFluidics Mass., USA). The lysate was clarified by centrifugation at 20,000×g for 2 hours. The protein was captured with Ni-NTA resin (Life Technologies, USA). Contaminating proteins were washed off with 25 mM Tris-HCl pH 8.3, 250 mM NaCl, 12% Glycerol and 50 mM Imidazole. Following 3× wash steps, protein was eluted step wise using a 50 mM HEPES pH 7.5, 500 mM NaCl and 400 mM Imidazole. The protein was further purified using Gel Filtration column 26/600 Superdex 200 (GE Biosciences NJ, USA) in 50 mM HEPES pH 7.5, 250 mM NaCl. The protein was aliquoted and flash-frozen in liquid Nitrogen. […]
(Alpha assays give light when donor and acceptor beads are brought close together.)

The test system of assay [3] is bromodomain. As to the kind of experiment: Bromodomain cell assays of Example 40 (at least one of them). It is filed as cell-based. The conditions noted are these: in at least one of the bromodomain cell assays described in Example 40. Summed up: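 Growth inhibition: 3000 MV-4-11, MOLM-13, MM.1S or neuroblastoma cells/well got an 8-point 1:3 series from 10 μM top (0.2% DMSO) for 72 h, then CellTiter-Glo luminescence. Myc reporter: MV-4-11 with E-box firefly luciferase, 24 h exposure, One-Glo luminescence plus CellTiter-Fluo cell count. pIC50 from four-parameter fit.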

In the case of `Cc1noc(C)c1-c1cnc2ccn(S(=O)(=O)c3cnn(C(F)F)c3)c2c1` [P-0054, 4-[1-[1-(difluoromethyl)pyrazol-4-yl]sulfonylpyrrolo[3,2-b]pyridin-6-yl]-3,5-dimethyl-isoxazole], the IC50 was 1 to 10 µM in assay [1], 1 to 10 µM in assay [2] and less than 10 µM in assay [3].

As to `Cc1noc(C)c1-c1cnc2ccn(S(=O)(=O)c3cccs3)c2c1` [P-0055, 3,5-dimethyl-4-[1-(2-thienylsulfonyl)pyrrolo [3,2-b]pyridin-6-yl]isoxazole], the half-inhibitory concentration (IC50) in assay [1] was 1 to 10 µM; in assay [2] it was 1 to 10 µM; in assay [3] it was less than 10 µM.

For `Cc1noc(C)c1-c1cnc2ccn(S(=O)(=O)c3cccc(F)c3)c2c1` [P-0056, 4-[1-(3-fluorophenyl)sulfonylpyrrolo[3,2-b]pyridin-6-yl]-3,5-dimethyl-isoxazole], the half-maximal inhibitory concentration (IC50) in assay [1] was 1 to 10 µM; in assay [2], 1 to 10 µM; in assay [3] it was less than 10 µM.

On to `Cc1noc(C)c1-c1cnc2ccn(S(=O)(=O)c3cccc(Cl)c3)c2c1` [P-0057, 4-[1-(3-chlorophenyl)sulfonylpyrrolo[3,2-b]pyridin-6-yl]-3,5-dimethyl-isoxazole], for which the IC50 was no more than 1 µM in assay [1], 1 to 10 µM in assay [2] and less than 10 µM in assay [3].

Regarding `Cc1nn(C(F)F)cc1S(=O)(=O)n1ccc2ncc(-c3c(C)noc3C)cc21` [P-0058, 4-[1-[1-(difluoromethyl)-3-methyl-pyrazol-4-yl]sulfonylpyrrolo[3,2-b]pyridin-6-yl]-3,5-dimethyl-isoxazole], the 50% inhibitory concentration (IC50) in assay [1] is 1 to 10 µM; in assay [2], 1 to 10 µM; in assay [3], less than 10 µM.

For the molecule `Cc1csc(S(=O)(=O)n2ccc3ncc(-c4c(C)noc4C)cc32)c1` [P-0059, 3,5-dimethyl-4-[1-[(4-methyl-2-thienyl)sulfonyl]pyrrolo[3,2-b]pyridin-6-yl]isoxazole], the half-maximal inhibitory concentration (IC50) is 1 to 10 µM in assay [1], 1 to 10 µM in assay [2] and less than 10 µM in assay [3].

Turning to `Cc1noc(C)c1-c1cnc2ccn(S(=O)(=O)c3cccc(OC(F)F)c3)c2c1` [P-0061, 4-[1-[3-(difluoromethoxy)phenyl]sulfonylpyrrolo [3,2-b]pyridin-6-yl]-3,5-dimethyl-isoxazole], the IC50 in assay [1] was 1 to 10 µM; in assay [2] it was 1 to 10 µM; in assay [3], less than 10 µM.

Regarding `[2H]C([2H])([2H])n1cc(CC2CCC(F)(F)CC2)c2cc(-c3c(C)noc3C)cnc21` [P-0079, 4-[3-[(4,4-difluorocyclohexyl)methyl]-1-(trideuteriomethyl)pyrrolo[2,3-b]pyridin-5-yl]-3,5-dimethyl-isoxazole], the IC50 in assay [1] is 1 to 10 µM; in assay [2], no more than 1 µM; in assay [3], less than 10 µM.

In the case of `[2H]C([2H])([2H])n1cc(C(OC)C2CCC(F)(F)CC2)c2cc(-c3c(C)noc3C)cnc21` (stereo not drawn) [P-0080, 4-[3-[(4,4-difluorocyclohexyl)-methoxy-methyl]-1-(trideuteriomethyl)pyrrolo[2,3-b]pyridin-5-yl]-3,5-dimethyl-isoxazole], the IC50 in assay [1] was no more than 1 µM; in assay [2] it was no more than 1 µM; in assay [3], less than 10 µM.

Regarding `Cc1noc(C)c1-c1cnc2c(-c3cccnc3)c[nH]c2c1` [P-0083, 3,5-dimethyl-4-[3-(3-pyridyl)-1H-pyrrolo[3,2-b]pyridin-6-yl]isoxazole], the IC50 is 1 to 10 µM in assay [1], 1 to 10 µM in assay [2] and less than 10 µM in assay [3].

As to `Cc1noc(C)c1-c1cnc2[nH]cc(C(=O)C3CCSCC3)c2c1` [P-0091, [5-(3,5-dimethylisoxazol-4-yl)-1H-pyrrolo[2,3-b]pyridin-3-yl]-tetrahydrothiopyran-4-yl-methanone], the IC50 was 1 to 10 µM in assay [1], no more than 1 µM in assay [2] and less than 10 µM in assay [3].

As for `[2H]C([2H])([2H])n1cc(CC2CCN(C(=O)OCc3ccccc3)CC2)c2cc(-c3c(C)noc3C)cnc21` [P-0092, benzyl 4-[[5-(3,5-dimethylisoxazol-4-yl)-1-(trideuteriomethyl)pyrrolo[2,3-b]pyridin-3-yl]methyl]piperidine-1-carboxylate], the half-maximal inhibitory concentration (IC50) in assay [1] is 1 to 10 µM; in assay [2] it was no more than 1 µM; in assay [3], less than 10 µM.

On to `Cc1noc(C)c1-c1cnc2[nH]cc(C=C3CC[S+]([O-])CC3)c2c1` (stereo not drawn) [P-0093, 4-[[5-(3,5-dimethylisoxazol-4-yl)-1H-pyrrolo[2,3-b]pyridin-3-yl]methylene]thiane 1-oxide], for which the concentration for half-maximal inhibition (IC50) in assay [1] was 1 to 10 µM; in assay [2] it was 1 to 10 µM; in assay [3], less than 10 µM.

In the case of `Cc1noc(C)c1-c1cnc2c(c1)c(C=C1CCS(=O)(=O)CC1)cn2S(=O)(=O)c1ccccc1` [P-0097, 4-[[1-(benzenesulfonyl)-5-(3,5-dimethylisoxazol-4-yl)pyrrolo[2,3-b]pyridin-3-yl]methylene]thiane 1,1-dioxide], the values for the IC50 in assay [1], in assay [2] and in assay [3] were 1 to 10 µM, 1 to 10 µM and less than 10 µM, respectively.

As for `Cc1noc(C)c1-c1cnc2[nH]cc(C=C3CCS(=O)(=O)CC3)c2c1` [P-0099, 4-[[5-(3,5-dimethylisoxazol-4-yl)-1H-pyrrolo[2,3-b]pyridin-3-yl]methylene]thiane 1,1-dioxide], the half-inhibitory concentration (IC50) in assay [1] was 1 to 10 µM; in assay [2] it was 1 to 10 µM; in assay [3], less than 10 µM.

Consider `Cc1noc(C)c1-c1cnc2c(c1)c(CC1CC3CCC1C3)cn2C` (stereo not drawn) [P-0100, 3,5-dimethyl-4-[1-methyl-3-(norbornan-2-ylmethyl)pyrrolo[2,3-b]pyridin-5-yl]isoxazole], for which the IC50 was 1 to 10 µM in assay [1], 1 to 10 µM in assay [2] and less than 10 µM in assay [3].

As for `Cc1noc(C)c1-c1cnc2c(-c3cnc(C4CC4)nc3)cn(S(=O)(=O)c3ccccc3)c2c1` [P-0102, 4-[1-(benzenesulfonyl)-3-(2-cyclopropylpyrimidin-5-yl)pyrrolo[3,2-b]pyridin-6-yl]-3,5-dimethyl-isoxazole], the IC50 in assay [1] is 1 to 10 µM; in assay [2] it was 1 to 10 µM; in assay [3] it was less than 10 µM.

In the case of `CCCCC(O)(c1cn(C)c2ncc(-c3c(C)noc3C)cc12)C1CCC(F)(F)CC1` (stereo not drawn) [P-0108, 1-(4,4-difluorocyclohexyl)-1-[5-(3,5-dimethylisoxazol-4-yl)-1-methyl-pyrrolo[2,3-b]pyridin-3-yl]pentan-1-ol], the IC50 is no more than 1 µM in assay [1], no more than 1 µM in assay [2] and less than 10 µM in assay [3].
